Reference: DBAASP
≈ marks a conversion by molar mass, not a printed value.

Tests used:
Experiment in all cases: ≥ marks a high value that may be exact or a test limit, other limits are often not marked, values filed in µg/mL are converted to µM
Escherichia coli = system: Escherichia coli
Listeria innocua = system: Listeria innocua
Micrococcus luteus A270 = system: Micrococcus luteus A270
[1] = system: Escherichia coli ATCC 25726
[2] = system: Escherichia coli ATCC 25922
[3] = system: Klebsiella pneumoniae ATCC 700603
[4] = system: Pseudomonas aeruginosa ATCC 27853
[5] = system: Staphylococcus aureus ATCC 25923
[6] = system: Staphylococcus aureus USA 300
[7] = system: Klebsiella pneumoniae ATCC 13883
[8] = system: Pseudomonas aeruginosa PAO1
[9] = system: Candida albicans ATCC 90028
[10] = system: Staphylococcus aureus NCTC 8325

CC(C)C[C@H](NC(=O)[C@H](CC(C)C)NC(=O)[C@H](CO)NC(=O)[C@H](Cc1cnc[nH]1)NC(=O)[C@H](CO)NC(=O)[C@H](CC(C)C)NC(=O)[C@H](CC(C)C)NC(=O)[C@@H](N)CCCCN)C(=O)O [KLLSHSLL]
MIC (Escherichia coli): 68 µM (≈ 61.9 µg/mL)
MIC (Listeria innocua): ≥ 34 µM
MIC (Micrococcus luteus A270): ≥ 34 µM

CC[C@H](C)[C@H](NC(=O)[C@H](CCC(=O)O)NC(=O)CNC(=O)[C@H](CC(C)C)NC(=O)[C@H](Cc1ccccc1)NC(=O)[C@H](C)NC(=O)[C@H](CCCCN)NC(=O)CNC(=O)[C@H](Cc1ccccc1)NC(=O)[C@H](CCCCN)NC(=O)CNC(=O)[C@H](C)NC(=O)[C@H](CO)NC(=O)[C@H](Cc1cnc[nH]1)NC(=O)[C@H](CC(C)C)NC(=O)[C@@H](NC(=O)[C@H](CCCCN)NC(=O)[C@H](CO)NC(=O)[C@@H](NC(=O)CN)C(C)C)[C@@H](C)CC)C(=O)N[C@@H](CCSC)C(=O)N[C@@H](CCCCN)C(=O)N[C@@H](CO)C(=O)O [GVSKILHSAGKFGKAFLGEIMKS]
MIC [1]: ≥ 100 µM
MIC [2]: 50 µM (≈ 120 µg/mL)
MIC [3]: 100 µM (≈ 241 µg/mL)
MIC [4]: 200 µM (≈ 481 µg/mL)
MIC [5]: > 100 µM

CC[C@H](C)[C@H](NC(=O)[C@H](CCCN=C(N)N)NC(=O)[C@@H](NC(=O)[C@@H](NC(=O)[C@H](CCCCN)NC(=O)[C@@H](NC(=O)[C@H](CC(C)C)NC(=O)[C@@H](NC(=O)[C@@H](NC(=O)[C@H](CCCCN)NC(=O)[C@H](CCCN=C(N)N)NC(=O)[C@H](Cc1ccc(O)cc1)NC(=O)CNC(=O)[C@H](Cc1cnc[nH]1)NC(=O)[C@H](CC(N)=O)NC(=O)[C@@H](N)C(C)C)C(C)C)[C@@H](C)O)[C@@H](C)O)[C@@H](C)O)C(C)C)C(=O)N[C@@H](CCCCN)C(=O)N[C@@H](CCCCN)C(=O)N[C@@H](Cc1ccccc1)C(=O)N[C@@H](CCSC)C(=O)O [VNHGYRKVTLTKTVRIKKFM]
MIC [6]: ≥ 128 µM

CC(C)C[C@H](NC(=O)[C@H](CCCCN)NC(=O)CNC(=O)[C@H](CC(C)C)NC(=O)[C@H](CC(C)C)NC(=O)[C@H](CC(C)C)NC(=O)[C@H](CO)NC(=O)[C@H](CC(C)C)NC(=O)[C@H](CC(C)C)NC(=O)[C@H](CC(C)C)NC(=O)[C@H](CO)NC(=O)[C@H](CC(C)C)NC(=O)CN)C(N)=O [GLSLLLSLLLGKL]
MIC [2]: > 25 µM
MIC [7]: 25 µM (≈ 33.5 µg/mL)
MIC [8]: > 25 µM
MIC [6]: 6.2 µM (≈ 8.3 µg/mL)

CC[C@H](C)[C@H](NC(=O)[C@H](CCCCN)NC(=O)[C@H](CCCCN)NC(=O)[C@H](C)NC(=O)[C@H](CC(C)C)NC(=O)[C@H](CC(N)=O)NC(=O)[C@@H](NC(=O)[C@H](CC(C)C)NC(=O)[C@@H](NC(=O)CNC(=O)[C@H](CC(C)C)NC(=O)[C@H](Cc1ccccc1)NC(=O)[C@@H](N)CC(N)=O)[C@@H](C)O)C(C)C)C(=O)N[C@@H](CC(C)C)C(N)=O [NFLGTLVNLAKKIL]
MIC [9]: ≥ 80 µM
MIC [1]: ≥ 64 µM
MIC [2]: 40 µM (≈ 61.7 µg/mL)
MIC [5]: 16 µM (≈ 24.7 µg/mL)
MIC [10]: 20 µM (≈ 30.9 µg/mL)

CC[C@H](C)[C@H](N)C(=O)N[C@@H](CCCCN)C(=O)N[C@H](C(=O)N1CCC[C@H]1C(=O)N[C@@H](C)C(=O)N[C@H](C(=O)N[C@H](C(=O)N[C@@H](CCCCN)C(=O)N[C@@H](CC(=O)O)C(=O)N[C@H](C(=O)N[C@@H](CC(C)C)C(=O)N[C@@H](CCCCN)C(=O)N[C@@H](CCCCN)C(=O)N[C@H](C(=O)N[C@@H](C)C(=O)N[C@@H](CCCCN)C(=O)NCC(=O)N[C@H](C(=O)N[C@@H](CC(C)C)C(=O)N[C@@H](CO)C(=O)N[C@@H](C)C(=O)N[C@H](C(=O)N[C@@H](C)C(=O)NCC(=O)N[C@@H](C)C(=O)N[C@@H](CC(C)C)C(=O)N[C@H](C(=O)N[C@@H](CCC(N)=O)C(=O)O)[C@@H](C)O)C(C)C)C(C)C)C(C)C)[C@@H](C)O)C(C)C)C(C)C)[C@@H](C)CC [IKIPAVVKDTLKKVAKGVLSAVAGALTQ]
MIC [9]: ≥ 80 µM
MIC [1]: 20 µM (≈ 56.4 µg/mL)
MIC [3]: 40 µM (≈ 113 µg/mL)
MIC [4]: 40 µM (≈ 113 µg/mL)
MIC [5]: 40 µM (≈ 113 µg/mL)
